Laboratory results from US9204640B2, “2-acyloxy-pyrrolin-4-ones” (BAYER INTELLECTUAL PROPERTY GMBH, priority 2011, dated 2015).

Tests used:
Format in all cases: in vivo
[1] = test system: Echinocloa crus-galli; experiment: Herbicidal post-emergence action, ECHCG
Procedure: (§1) 2. Herbicidal Post-Emergence Action
(§2) • Seeds of monocotyledonous and dicotyledonous weed and crop plants are placed in sandy loam in wood-fiber pots, covered with soil and cultivated in a greenhouse under good growth conditions. 2 to 3 weeks after sowing, the test plants are treated at the one-leaf stage. The test compounds, formulated as wettable powders (WP), are then, with a water application rate of 600 l/ha (converted), with 0.2% of wetting agent added, sprayed at various dosages onto the green parts of the plants. After the test plants have been kept in the greenhouse under optimum growth conditions for about 3 weeks, the activity of the preparations is rated visually in comparison to untreated controls (herbicidal activity in percent: 100% activity=the plants have died, 0% activity=like control plants). • In addition to the compounds mentioned above, the following compounds show an activity of 90-100% against Alopecurus myosuroides, Avena fatua, Digitaria sanguinalis, Echinocloa crus-galli, Lolium multiflorum, Setaria viridis and Sorghum halapense when applied by the post-emergence method at 320 g/ha: I-a-2, I-a-4, I-a-5, I-a-7, I-a-9, I-a-10, I-a-11, I-a-12, I-a-13, I-a-15. • In addition to the compounds mentioned above, the following compounds show an activity of 90-100% against Alopecurus myosuroides, Avena fatua, Echinocloa crus-galli, Lolium multiflorum and Setaria viridis when applied by the post-emergence method at 80 g/ha: I-a-1, I-b-2.
(§3) • Seeds of monocotyledonous and dicotyledonous weed plants and crop plants are placed in wood-fiber pots in sandy loam and covered with soil. The test compounds, formulated in the form of wettable powders (WP) or emulsion concentrates (EC), are then, as an aqueous suspension with a water application rate of 600-800 l/ha (converted), with 0.1-0.2% of wetting agent added, applied at various dosages to the surface of the covering soil. • After the treatment, the pots are placed in a greenhouse and kept under good growth conditions for the test plants. […] Herbicidal Post-Emergence Action (Post) • Seeds of monocotyledonous and dicotyledonous weed and crop plants are placed in sandy loam in wood-fiber pots, covered with soil and cultivated in a greenhouse under good growth conditions. 2-3 weeks (stages 10-13 according to the BBCH scale) after sowing, the test plants are treated at a height of 5-10 cm. The test compounds, formulated as wettable powders (WP) or emulsion concentrates (EC), are then, with a water application rate of 600-800 l/ha (converted), with 0.1-0.2% of wetting agent added, sprayed at various dosages onto the green parts of the plants.
(§4) AVEFA: Avena fatua LOLMU: Lolium multiflorum SETVI: Setaria viridis CHEAL: Chenopodium album VIOTR: Viola tricolor VERPE: Veronica persica ORYSA: Oryza sativa TRZAS: Triticum aestivum ZEAMX: Zea mays ALOMY: Alopecurus myosuroides DIGSA: Digitaria sanguinalis ECHCG: Echinocloa crus-galli SORHA: Sorghum halepense AVESA: Avena sativa AMARE: Amaranthus retroflexus SINAL: Sinapis alba STEME: Stellaria media

[2] = test system: Myzus persicae; experiment: Myzus test (MYZUPE spray treatment); details: for effect in % (aphids killed): application rate 500 g/ha, after 5 days, Chinese cabbage leaf discs
Procedure: Myzus Test (MYZUPE Spray Treatment) [table] To produce a suitable preparation of active compound, 1 part by weight of active compound is mixed with the stated amount of solvent and emulsifier, and the concentrate is diluted with emulsifier-containing water to the desired concentration. Discs of Chinese cabbage (Brassica pekinensis) infected by all stages of the green peach aphid (Myzus persicae) are sprayed with an active compound preparation of the desired concentration. After 5 days, the effect in % is determined 100% means that all of the aphids have been killed; 0% means that none of the aphids have been killed. Myzus Test (MYZUPE Spray Treatment) To produce a suitable preparation of active compound, 1 part by weight of active compound is mixed with the stated amount of solvent and emulsifier, and the concentrate is diluted with emulsifier-containing water to the desired concentration. Discs of Chinese cabbage (Brassica pekinensis) infected by all stages of the green peach aphid (Myzus persicae) are sprayed with an active compound preparation of the desired concentration. After the desired period of time, the activity in % is determined. 100% means that all of the aphids have been killed; 0% means that none of the aphids have been killed.

[3] = test system: Tetranychus urticae; experiment: Tetranychus test (TETRUR spray treatment; OP-resistant in Example 10); details: for effect in % (spider mites killed): after 5 days, bean leaf discs
Procedure: Tetranychus Test (TETRUR Spray Treatment)
To produce a suitable preparation of active compound, 1 part by weight of active compound is mixed with the stated amount of solvent and emulsifier, and the concentrate is diluted with emulsifier-containing water to the desired concentration. Discs of bean leaves (Phaseolus vulgaris) which are infested by all stages of the greenhouse red spider mite (Tetranychus urticae) are sprayed with an active compound preparation of the desired concentration.
After 5 days, the effect in % is determined. 100% means that all of the spider mites have been killed; 0% means that none of the spider mites have been killed.
Tetranychus Test, OP-Resistant (TETRUR Spray Treatment)
To produce a suitable preparation of active compound, 1 part by weight of active compound is mixed with the stated amount of solvent and emulsifier, and the concentrate is diluted with emulsifier-containing water to the desired concentration.
Discs of bean leaves (Phaseolus vulgaris) which are infested by all stages of the greenhouse red spider mite (Tetranychus urticae) are sprayed with an active compound preparation of the desired concentration.
After the desired period of time, the activity in % is determined. 100% means that all of the spider mites have been killed; 0% means that none of the spider mites have been killed.

[4] = test system: Phaedon cochleariae; experiment: Phaedon test (PHAECO spray treatment); details: for inhibition at 100 g/ha: Phaedon cochleariae, 168 h, 7dat; for effect in % (beetle larvae killed): application rate 500 g/ha, after 7 days, Chinese cabbage leaf discs
Procedure: Phaedon Test ([…] Spray Treatment) [table] To produce a suitable preparation of active compound, 1 part by weight of active compound is mixed with the stated amount of solvent and emulsifier, and the concentrate is diluted with emulsifier-containing water to the desired concentration. Discs of Chinese cabbage (Brassica pekinensis) are sprayed with an active compound preparation of the desired concentration and, after drying, populated with larvae of the mustard beetle (Phaedon cochleariae). After 7 days, the effect in % is determined 100% means that all beetle larvae have been killed; 0% means that none of the beetle larvae have been killed. Phaedon Test ([…] Spray Treatment) To produce a suitable preparation of active compound, 1 part by weight of active compound is mixed with the stated amount of solvent and emulsifier, and the concentrate is diluted with emulsifier-containing water to the desired concentration. Discs of Chinese cabbage (Brassica pekinensis) are sprayed with an active compound preparation of the desired concentration and, after drying, populated with larvae of the mustard beetle (Phaedon cochleariae). After the desired period of time, the activity in % is determined. 100% means that all beetle larvae have been killed; 0% means that none of the beetle larvae have been killed.

[5] = test system: Oryza sativa; experiment: Herbicidal post-emergence action, ORYSA
Excerpt: as §3, §4

[6] = test system: Zea mays; experiment: Herbicidal post-emergence action, ZEAMX
Excerpt: as §3, §4

[7] = test system: Avena fatua; experiment: Herbicidal post-emergence action, AVEFA
Procedure: as §1, §2, §3, §4

[8] = test system: Lolium multiflorum; experiment: Herbicidal post-emergence action, LOLMU
Procedure: as §1, §2, §3, §4

[9] = test system: Digitaria sanguinalis; experiment: Herbicidal post-emergence action, DIGSA; details: 80 g/ha
Procedure: as §1, §2, §3, §4

[10] = test system: Setaria viridis; experiment: Herbicidal post-emergence action, SETVI; details: 80 g/ha
Procedure: as §1, §2, §3, §4

[11] = test system: Triticum aestivum; experiment: Herbicidal post-emergence action, TRZAS
Excerpt: as §3, §4

[12] = test system: Alopecurus myosuroides; experiment: Herbicidal post-emergence action, ALOMY
Procedure: as §1, §2, §3, §4

[13] = test system: Sorghum halepense; experiment: Herbicidal post-emergence action, SORHA; details: for % Activity SORHA: 80 g/ha
Procedure: as §1, §2, §3, §4

[14] = test system: Boophilus microplus; experiment: Boophilus microplus test (BOOPMI injection); details: 20 μg/animal, after 7 days
Procedure: Boophilus Microplus Test (BOOPMI Injection) [table] To prepare an appropriate active compound formulation, 10 mg of active compound are mixed with 0.5 ml of solvent and the concentrate is diluted with solvent to the desired concentration. The solution of active compound is injected into the abdomen (Boophilus microplus), and the animals are transferred into dishes and kept in a climatized room. The activity is assessed by deposition of fertile eggs. After 7 days, the effect in % is determined. 100% means that none of the ticks has laid any fertile eggs.

CCc1cc(Br)cc(C)c1C1=C(OC(=O)C(C)(C)C)NC2(CCC(OC)CC2)C1=O (centres unmarked) [I-a-5]
% Activity ECHCG ([1]; 20 g/ha): 80%

CCOC(=O)OC1=C(c2c(CC)cc(C)cc2C2CC2)C(=O)C(C)(C)N1 [I-b-5]
effect in % (aphids killed) [2]: 100%

CCOC(=O)OC1=C(c2cc(C)c(Cl)cc2C)C(=O)C2(CCC(COC)CC2)N1 (centres unmarked) [I-b-4]
effect in % (aphids killed) [2]: 90%

CCC(C)(C)C(=O)OC1=C(c2cc(C)ccc2C)C(=O)C2(CCC(OC)CC2)N1 (centres unmarked) [I-a-16]
% Activity TETRUR ([3]; 500 g/ha, 5dat, OP-resistant): 90% | effect in % (spider mites killed) ([3]; application rate 500 g/ha): 90% | % Activity MYZUPE ([2]; 20 g/ha, 5dat): 100% | effect in % (aphids killed) [2]: 100%

CCOC(=O)OC1=C(c2cc(C)ccc2C)C(=O)N[C@@]12CCC[C@@H](COC)C2 [I-1-c-2 known from WO 07/048545]
inhibition at 100 g/ha [4]: 50% | inhibition at 4 g/ha ([2]; Myzus persicae, 120 h, 5dat): 0%

CCCc1cc(Br)cc(Br)c1C1=C(OC(=O)C(C)(C)C)NC(C)(C)C1=O [I-a-11]
effect in % (beetle larvae killed) [4]: 83%

CCc1cc(Br)cc(Cl)c1C1=C(OC(=O)C(C)(C)C)C2(CCCCC2)NC1=O [I-b-41 known from WO 04/065366]
inhibition at 80 g/ha ([5]; Oryza sativa, post-emergence, 80 g/ha): 0% | inhibition at 80 g/ha ([6]; Zea mays, post-emergence, 80 g/ha): 0% | inhibition at 80 g/ha ([7]; Avena fatua, post-emergence, 80 g/ha): 0% | inhibition at 80 g/ha ([8]; Lolium multiflorum, post-emergence, 80 g/ha): 0% | inhibition at 80 g/ha ([9]; Digitaria sanguinalis, post-emergence): 0% | inhibition at 80 g/ha ([10]; Setaria viridis, post-emergence): 0% | inhibition at 80 g/ha ([11]; Triticum aestivum, post-emergence, 80 g/ha): 0% | inhibition at 80 g/ha ([12]; Alopecurus myosuroides, post-emergence, 80 g/ha): 0% | inhibition at 80 g/ha ([13]; Sorghum halepense, post-emergence): 0% | inhibition at 80 g/ha ([1]; Echinochloa crus-galli, post-emergence, 80 g/ha): 80%

CCC(C)(C)C(=O)OC1=C(c2cc(C)ccc2C)C(=O)N[C@]12CC[C@@H](OC)CC2
inhibition at 500 g/ha ([3]; Tetranychus urticae, 120 h, 500 g/ha, 5dat, OP-resistant): 0% | inhibition at 20 g/ha ([2]; Myzus persicae, 120 h, 20 g/ha, 5dat): 0%

CCc1cc(Br)cc(C)c1C1=C(OC(=O)C(C)(C)C)C2(CCC(OC)CC2)NC1=O (centres unmarked) [I-b-2 known from WO 05/006125]
inhibition at 20 g/ha ([1]; Echinochloa crus-galli, post-emergence, 20 g/ha): 50%

CCc1cc(Cl)cc(OC)c1C1=C(OC(=O)C(C)C)C2(CCCCC2)NC1=O
% Activity ORYSA ([5]; concentration 80 g/ha 20 g/ha): 0% | % Activity ZEAMX ([6]; concentration 80 g/ha 20 g/ha): 20% | % Activity AVEFA ([7]; concentration 80 g/ha 20 g/ha): 20% | % Activity LOLMU ([8]; concentration 80 g/ha 20 g/ha): 50% | % Activity TRZAS ([11]; concentration 80 g/ha 20 g/ha, first TRZAS column): 0% | % Activity TRZAS ([11]; concentration 80 g/ha 20 g/ha, second TRZAS column): 0% | % Activity ALOMY ([12]; concentration 80 g/ha 20 g/ha): 40%

CCc1cc(Br)cc(Cl)c1C1=C(OC(=O)C(C)(C)C)NC2(CCCCC2)C1=O [I-a-14]
% Activity ORYSA ([5]; 80 g/ha): 80% | % Activity ZEAMX ([6]; 80 g/ha): 100% | efficacy in % (deposition of fertile eggs) [14]: 80% | effect in % (spider mites killed) ([3]; application rate 500 g/ha): 90% | % Activity AVEFA ([7]; 80 g/ha): 100% | % Activity LOLMU ([8]; 80 g/ha): 100% | effect in % (beetle larvae killed) [4]: 100% | % Activity DIGSA [9]: 100% | % Activity SETVI [10]: 100% | effect in % (aphids killed) [2]: 90% | % Activity TRZAS ([11]; 80 g/ha): 90% | % Activity ALOMY ([12]; 80 g/ha): 80% | % Activity SORHA [13]: 100% | % Activity SORHA ([13]; second SORHA column): 90% | % Activity ECHCG ([1]; 80 g/ha): 100%

CCOC(=O)OC1=C(c2cc(C)ccc2C)C(=O)[C@@]2(CCC[C@H](COC)C2)N1 [I-b-1]
efficacy in % (deposition of fertile eggs) [14]: 95% | effect in % (spider mites killed) ([3]; application rate 100 g/ha): 100% | inhibition at 100 g/ha [4]: 100% | effect in % (beetle larvae killed) [4]: 100% | inhibition at 4 g/ha ([2]; Myzus persicae, 120 h, 5dat): 90% | effect in % (aphids killed) [2]: 100%

CCc1cc(C)cc(Br)c1C1=C(OC(=O)C(C)C)NC(C)(C)C1=O [Example I-a-1]
effect in % (beetle larvae killed) [4]: 83% | effect in % (aphids killed) [2]: 90%
